The results in this text go back to ChEMBL document CHEMBL4819049, “Estrogenic activity of ethyl gallate and its potential use in hormone replacement therapy” (Bioorg Med Chem Lett, 2021).

The test system of data set [1] is MCF7. Nature of the data set: Estrogenic activity at human ER-positive MCF7 cells assessed as increase in cell proliferation at 50 uM incubated for 144 hrs by Soto's E-screen assay. The data set is classed as functional, cell-based.
Data set [2] relates to MCF7. Kind of data set: Cytotoxicity against human ER-positive MCF7 cells assessed as reduction in cell proliferation at 50 uM incubated for 144 hrs by Soto's E-screen assay. The format is cell-based. The following applies: mcf7, 144 h.
The test system of data set [3] is MCF7. Nature of the data set: Cytotoxicity against human ER-positive MCF7 cells assessed as increase in cell proliferation at 12.5 to 100 uM incubated for 24 hrs. The format is cell-based. The following applies: mcf7, 24 h, dose 12.5-100 µM.
Data set [4] deals with MCF7. Nature of the data set: Cytotoxicity against human ER-positive MCF7 cells assessed as cell proliferation at 50 uM incubated for 144 hrs by Soto's E-screen assay relative to control. The format is cell-based. To be noted: mcf7, 144 h.
In data set [5] the test system is MCF7. Nature of the data set: Cytotoxicity against human ER-positive MCF7 cells assessed as decrease in cell proliferation at 12.5 to 100 uM incubated for 24 hrs. To be noted: for IC50: MCF7, 24 h; for inhibition: dose 12.5-100 µM. The format is functional, cell-based.
The test system of data set [6] is Rattus norvegicus. Kind of data set: Estrogenic activity in immature rat model assessed as uterine weight at 10 ug/kg, sc (reference value: 37.67 mg). The data set is classed as functional. The following applies: dose 10 µg/kg.
The subject of data set [7] is MCF7. Kind of data set: Estrogenic activity at human ER-positive MCF7 cells assessed as cell proliferation at 50 uM incubated for 144 hrs by Soto's E-screen assay relative to control. The following applies: read-out: Activity. The format is functional.
Data set [8] concerns the target T1, Estrogen receptor (Homo sapiens) (UniProt P03372).
T1 sequence (whole entry): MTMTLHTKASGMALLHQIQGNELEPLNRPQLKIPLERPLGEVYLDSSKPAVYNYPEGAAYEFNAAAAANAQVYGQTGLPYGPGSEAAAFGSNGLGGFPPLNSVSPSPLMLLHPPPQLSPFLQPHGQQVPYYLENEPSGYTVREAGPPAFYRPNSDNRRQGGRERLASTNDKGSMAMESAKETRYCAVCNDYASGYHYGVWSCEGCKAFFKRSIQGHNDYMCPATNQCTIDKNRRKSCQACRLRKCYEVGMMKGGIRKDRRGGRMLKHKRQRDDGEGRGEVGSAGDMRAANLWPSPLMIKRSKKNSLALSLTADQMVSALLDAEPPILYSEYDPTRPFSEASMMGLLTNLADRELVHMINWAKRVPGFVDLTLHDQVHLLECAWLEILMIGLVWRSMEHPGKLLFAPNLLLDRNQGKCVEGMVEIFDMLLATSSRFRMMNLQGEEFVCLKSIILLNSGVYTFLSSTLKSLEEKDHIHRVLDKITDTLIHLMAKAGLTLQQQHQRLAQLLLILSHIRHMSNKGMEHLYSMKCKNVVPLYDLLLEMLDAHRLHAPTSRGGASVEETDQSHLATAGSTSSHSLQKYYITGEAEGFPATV
Kind of data set: Agonist activity at ER in human MCF7 cells assessed as increase in receptor gene activity at 12.5 to 100 uM in presence of ER agonist, 17-beta-estradiol by luciferase reporter gene assay relative to control. The following applies: dose 12.5-100 µM. The data set is classed as cell-based. A general note: In a reporter assay the amount or activity of a reporter protein is the signal.

In data set [9] the target is T1, Estrogen receptor (Homo sapiens). Nature of the data set: Agonist activity at ER in human MCF7 cells assessed as increase in receptor gene activity at 12.5 to 100 uM in presence of ER antagonist, ICI182780 by luciferase reporter gene assay. To be noted: dose 12.5-100 µM. The data set is classed as cell-based.
The subject of data set [10] is MCF7. Nature of the data set: Estrogenic activity at human ER-positive MCF7 cells assessed as increase in cell proliferation at 12.5 to 100 uM incubated for 144 hrs in presence of ER antagonist, ICI182780 by Soto's E-screen assay. The format is functional, cell-based. To be noted: dose 12.5-100 µM.
Data set [11] concerns Rattus norvegicus. Nature of the data set: Estrogenic activity in immature rat model assessed as uterine weight at 100 mg/kg, sc administered once daily for 3 days (reference value: 37.67 mg). The format is functional. The following applies: dose 100 mg/kg/day; time 3 day.
Data set [12] deals with T1, Estrogen receptor (Homo sapiens). Kind of data set: Agonist activity at ER in human MCF7 cells assessed as increase in receptor gene activity by luciferase reporter gene assay. The data set is classed as cell-based. The following applies: filed as agonist, dose 12.5-100 µM.
The subject of data set [13] is MCF7. Nature of the data set: Estrogenic activity at human ER-positive MCF7 cells assessed as increase in cell proliferation at 50 uM incubated for 144 hrs in presence of ER antagonist, ICI182780 by Soto's E-screen assay. The format is functional, cell-based.
The test system of data set [14] is MCF7. Nature of the data set: Estrogenic activity at human ER-positive MCF7 cells assessed as increase in cell proliferation incubated for 144 hrs by Soto's E-screen assay. The data set is classed as functional, cell-based. To be noted: dose 25-100 µM.

SMILES strings stand for the structures. Activity calls are given as the source filed them. The rule behind the calls is not given here.

Consider `COc1ccc(C(C)=O)c(O)c1` [PAEONOL], for which the outcome in [1] was inactive. Moreover, the Activity result in data set [2] and in [3] was “Non-Toxic” throughout.
Regarding `C[C@@]12C[C@@]3(O)O[C@@H](O1)[C@]1(COC(=O)c4ccccc4)[C@H]3C[C@@]12O[C@@H]1O[C@H](CO)[C@@H](O)[C@H](O)[C@H]1O` [PAEONIFLORIN], in data set [1], the result was inactive. In addition, the Activity result in [2] and in [3] was “Non-Toxic” throughout.
Regarding `O=C(O)c1ccccc1` [BENZOIC ACID], in data set [1], the outcome was inactive. Besides, the Activity result in [2] and in [3] was “Non-Toxic” throughout.
The term IC50 denotes the midpoint of a concentration-inhibition curve. Turning to `O=C(O)c1cc(O)c(O)c(O)c1` [GALLIC ACID], the Activity in data set [4] was 15.8%; in data set [3], “Non-Toxic”. In addition, the IC50 in [5] came out at 17.4 µM. For the same compound, the inhibition result in [5] is “Dose-Dependent Effect”.
As to `C[C@]12CC[C@@H]3c4ccc(O)cc4CC[C@H]3[C@@H]1CC[C@@H]2O` [ESTRADIOL], the Activity in data set [6] is given as 51 mg.
As to `C[C@@]12C[C@@]3(O)O[C@@H](O1)[C@]1(COC(=O)c4ccccc4)[C@H]3C[C@@]12O[C@@H]1O[C@H](COC(=O)c2ccccc2)[C@@H](O)[C@H](O)[C@H]1O`, the outcome in [1] was inactive. Besides, the Activity result in data set [2] and in data set [3] was “Non-Toxic” throughout.
Regarding `CCOC(=O)c1cc(O)c(O)c(O)c1` [ETHYLGALLATE], the growth at 50 µM in data set [7] was 131%. The fold change (FC) in [8] is greater than 2. Moreover, the outcome in [9], in data set [10] and in [13] was inactive. Also, the Activity was 43.67 mg in [11], “Dose-Dependent Effect” in data set [12], “Dose-Dependent Effect” in data set [14] and “Non-Toxic” in data set [3]. Further, the half-maximal inhibitory concentration (IC50) in data set [5] is 62.5 µM. For the same compound, the inhibition entry in data set [5] was “Dose-Dependent Effect”.
As for `C[C@@]12C[C@@]3(O)O[C@@H](O1)[C@]1(COC(=O)c4ccc(O)cc4)[C@H]3C[C@@]12O[C@@H]1O[C@H](CO)[C@@H](O)[C@H](O)[C@H]1O`, the result in [1] was inactive. For the same compound, the Activity result in [2] and in data set [3] was “Non-Toxic” throughout.
